US10610526B2 (priority 2015, dated 2020)

system: not given; experiment: not given; conditions: rat, in vivo; cited from earlier work

Row | SMILES | carcinogenicity
1 | CN1CCCC1c1cccnc1 (stereo not drawn) [synthetic nicotine, nicotine] | not carcinogenic

biological target: T1, α6/3β2β3 nAChRs (Homo sapiens, UniProt Q15825); experiment: cell-based; conditions: read-out: Agonist Effect Emax
T1 sequence (Q15825 26-239 limits assumed): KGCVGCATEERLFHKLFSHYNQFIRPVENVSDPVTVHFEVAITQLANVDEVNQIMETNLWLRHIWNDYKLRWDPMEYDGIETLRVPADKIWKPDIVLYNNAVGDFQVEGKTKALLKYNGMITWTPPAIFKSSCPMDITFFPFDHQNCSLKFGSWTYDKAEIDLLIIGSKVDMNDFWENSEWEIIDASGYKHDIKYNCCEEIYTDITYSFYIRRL
T1 sequence (P17787 26-238 limits assumed, further chain): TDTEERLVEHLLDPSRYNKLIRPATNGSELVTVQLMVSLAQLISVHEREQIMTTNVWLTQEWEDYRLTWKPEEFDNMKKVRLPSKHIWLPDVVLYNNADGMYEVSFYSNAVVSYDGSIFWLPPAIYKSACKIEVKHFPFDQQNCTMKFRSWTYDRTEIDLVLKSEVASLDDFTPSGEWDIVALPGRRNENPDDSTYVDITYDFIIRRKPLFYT
T1 sequence (Q05901 22-237 limits assumed, further chain): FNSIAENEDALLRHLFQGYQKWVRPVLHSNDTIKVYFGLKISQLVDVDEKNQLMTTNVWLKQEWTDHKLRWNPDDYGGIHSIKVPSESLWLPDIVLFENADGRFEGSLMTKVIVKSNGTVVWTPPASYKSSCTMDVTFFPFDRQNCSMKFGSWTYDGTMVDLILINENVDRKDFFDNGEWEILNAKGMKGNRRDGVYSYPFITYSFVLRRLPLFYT

Row | SMILES | Emax
2 | CN1CCCC1c1cccnc1 (racemic) [Synthetic RS racemic nicotine, RS-Nicotine] | 91%
3 | CN1CCCC1c1cccnc1 (stereo not drawn) [Ref. nicotine (Sigma-Aldrich), nicotine] | 100%
4 | CN1CCC[C@@H]1c1cccnc1 [Synthetic R nicotine, R nicotine] | 70%
5 | CN1CCC[C@H]1c1cccnc1 [Synthetic S nicotine, S nicotine] | 97%

biological target: α4β2 nAChRs (Homo sapiens, UniProt P17787+P43681); experiment: cell-based; assay type: cell-based; conditions: not given
Sequence (P43681 29-627 limits assumed): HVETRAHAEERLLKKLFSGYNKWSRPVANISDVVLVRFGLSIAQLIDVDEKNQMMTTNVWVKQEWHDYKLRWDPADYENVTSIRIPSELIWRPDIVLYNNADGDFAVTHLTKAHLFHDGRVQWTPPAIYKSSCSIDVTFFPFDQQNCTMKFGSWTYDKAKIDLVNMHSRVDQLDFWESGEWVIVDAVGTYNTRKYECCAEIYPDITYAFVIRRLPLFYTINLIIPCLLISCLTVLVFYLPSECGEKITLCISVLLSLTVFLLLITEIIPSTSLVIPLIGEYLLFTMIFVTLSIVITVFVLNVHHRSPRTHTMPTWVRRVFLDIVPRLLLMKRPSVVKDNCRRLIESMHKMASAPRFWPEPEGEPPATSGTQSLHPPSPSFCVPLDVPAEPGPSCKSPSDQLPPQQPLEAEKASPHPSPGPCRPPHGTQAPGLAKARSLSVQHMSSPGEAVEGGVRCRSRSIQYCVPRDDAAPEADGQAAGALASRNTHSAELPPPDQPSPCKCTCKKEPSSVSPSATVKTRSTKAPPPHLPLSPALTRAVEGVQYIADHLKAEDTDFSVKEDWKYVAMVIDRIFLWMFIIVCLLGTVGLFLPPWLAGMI
Sequence (P17787 26-502): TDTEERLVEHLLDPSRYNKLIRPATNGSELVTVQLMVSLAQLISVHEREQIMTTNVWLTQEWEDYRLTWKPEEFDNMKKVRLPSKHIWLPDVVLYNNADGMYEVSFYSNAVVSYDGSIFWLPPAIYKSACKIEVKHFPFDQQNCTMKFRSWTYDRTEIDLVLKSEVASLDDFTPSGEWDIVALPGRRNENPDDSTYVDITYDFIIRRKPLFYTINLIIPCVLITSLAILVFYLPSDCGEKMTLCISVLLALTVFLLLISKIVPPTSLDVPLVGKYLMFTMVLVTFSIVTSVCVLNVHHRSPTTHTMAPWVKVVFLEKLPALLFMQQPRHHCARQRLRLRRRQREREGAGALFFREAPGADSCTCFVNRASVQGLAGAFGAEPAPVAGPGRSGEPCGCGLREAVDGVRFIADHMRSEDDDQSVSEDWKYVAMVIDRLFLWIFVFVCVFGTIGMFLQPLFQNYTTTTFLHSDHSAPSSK

Row | SMILES | Agonist Effect Hillslope | Antagonist Effect Hillslope | agonist character at human α4β2 nAChRs
6 | CN1CCC[C@H]1c1cccnc1 [Alchem S nicotine, S nicotine] | −0.81 | 1.01 | 
7 | CN1CCCC1c1cccnc1 (stereo not drawn) [Ref. nicotine (Sigma-Aldrich), nicotine] | −0.80 | 0.85 | 
8 | CN1CCC[C@H]1c1cccnc1 [Sigma-Aldrich S nicotine, S nicotine] | −0.84 | 0.94 | 
9 | CN1CCC[C@@H]1c1cccnc1 [Synthetic R nicotine, R nicotine] | −0.87 | 0.67 | partial agonist

same assay, conditions: read-out: Agonist Effect Emax

Row | SMILES | Emax
10 | CN1CCC[C@@H]1c1cccnc1 [Synthetic R nicotine, R nicotine] | 28%

biological target: α7 nAChRs (Homo sapiens, UniProt P36544); experiment: not given; assay type: cell-based; conditions: not given
Sequence (P36544 23-502): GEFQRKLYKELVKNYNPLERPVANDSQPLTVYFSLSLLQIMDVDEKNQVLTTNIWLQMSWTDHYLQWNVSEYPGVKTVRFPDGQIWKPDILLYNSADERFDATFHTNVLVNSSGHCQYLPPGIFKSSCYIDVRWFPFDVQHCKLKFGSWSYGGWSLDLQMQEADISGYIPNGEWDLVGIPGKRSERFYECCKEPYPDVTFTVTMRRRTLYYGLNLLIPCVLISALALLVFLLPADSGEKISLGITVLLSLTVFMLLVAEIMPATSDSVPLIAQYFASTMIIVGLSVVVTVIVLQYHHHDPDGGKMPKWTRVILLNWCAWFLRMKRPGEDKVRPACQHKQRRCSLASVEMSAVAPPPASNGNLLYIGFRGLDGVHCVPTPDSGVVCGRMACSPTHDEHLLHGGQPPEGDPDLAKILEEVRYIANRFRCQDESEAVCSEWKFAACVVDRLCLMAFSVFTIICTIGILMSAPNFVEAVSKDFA

Row | SMILES | Agonist Effect Hillslope | Antagonist Effect Hillslope | agonist character at human α7 nAChRs
11 | CN1CCC[C@H]1c1cccnc1 [Alchem S nicotine, S nicotine] | −3.15 | 3.06 | 
12 | CN1CCCC1c1cccnc1 (stereo not drawn) [Ref. nicotine (Sigma-Aldrich), nicotine] | −2.23 |  | 
13 | CN1CCC[C@H]1c1cccnc1 [Sigma-Aldrich S nicotine, S nicotine] | −2.49 | 2.76 | 
14 | CN1CCC[C@@H]1c1cccnc1 [Synthetic R nicotine, R nicotine] | −2.37 | 2.55 | full, weak agonist

biological target: T2, α3β4α5 nAChRs (Homo sapiens, UniProt P30926+P32297); experiment: not given; conditions: not given
T2 sequence (P32297 32-505): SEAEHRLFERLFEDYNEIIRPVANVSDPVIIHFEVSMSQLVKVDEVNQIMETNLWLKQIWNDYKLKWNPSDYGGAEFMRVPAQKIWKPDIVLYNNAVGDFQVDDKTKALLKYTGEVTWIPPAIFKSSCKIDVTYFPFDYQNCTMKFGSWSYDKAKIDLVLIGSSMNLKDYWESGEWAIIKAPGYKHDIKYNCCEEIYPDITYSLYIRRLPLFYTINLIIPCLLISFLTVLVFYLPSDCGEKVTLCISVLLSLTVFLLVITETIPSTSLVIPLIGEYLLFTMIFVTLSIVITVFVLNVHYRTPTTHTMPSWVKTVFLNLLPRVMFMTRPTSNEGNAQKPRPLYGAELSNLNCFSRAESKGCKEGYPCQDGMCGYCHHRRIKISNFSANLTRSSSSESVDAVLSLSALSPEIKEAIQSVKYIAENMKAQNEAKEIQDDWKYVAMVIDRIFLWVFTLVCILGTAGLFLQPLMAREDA
T2 sequence (P30926 22-498): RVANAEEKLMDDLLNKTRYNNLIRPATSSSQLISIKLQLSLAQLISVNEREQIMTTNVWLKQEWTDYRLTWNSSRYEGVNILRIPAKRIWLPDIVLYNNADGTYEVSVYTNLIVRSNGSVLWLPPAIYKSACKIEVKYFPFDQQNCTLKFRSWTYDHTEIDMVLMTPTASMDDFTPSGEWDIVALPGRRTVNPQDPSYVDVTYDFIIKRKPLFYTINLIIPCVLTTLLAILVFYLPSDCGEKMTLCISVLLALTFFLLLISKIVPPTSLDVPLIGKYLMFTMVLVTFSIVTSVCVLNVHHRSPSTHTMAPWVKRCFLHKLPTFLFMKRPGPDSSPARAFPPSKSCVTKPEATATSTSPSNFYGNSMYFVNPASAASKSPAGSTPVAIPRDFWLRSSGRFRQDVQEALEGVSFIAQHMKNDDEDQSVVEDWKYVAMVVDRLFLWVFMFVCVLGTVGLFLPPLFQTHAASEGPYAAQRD
T2 sequence (P30532 23-468 partner): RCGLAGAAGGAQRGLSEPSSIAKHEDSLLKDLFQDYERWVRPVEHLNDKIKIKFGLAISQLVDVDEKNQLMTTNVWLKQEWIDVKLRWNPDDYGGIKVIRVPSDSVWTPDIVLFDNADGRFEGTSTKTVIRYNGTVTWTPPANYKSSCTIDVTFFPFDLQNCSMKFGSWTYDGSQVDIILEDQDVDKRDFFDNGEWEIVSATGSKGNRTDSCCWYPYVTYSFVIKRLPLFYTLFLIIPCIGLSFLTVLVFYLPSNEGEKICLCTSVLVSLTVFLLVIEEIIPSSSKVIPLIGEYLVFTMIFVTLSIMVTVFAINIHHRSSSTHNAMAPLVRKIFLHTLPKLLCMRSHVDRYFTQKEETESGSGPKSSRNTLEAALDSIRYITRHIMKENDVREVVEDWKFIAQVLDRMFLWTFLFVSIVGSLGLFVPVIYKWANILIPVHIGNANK

Row | SMILES | Agonist Effect Hillslope | Antagonist Effect Hillslope | Agonist Effect Emax | agonist character at human α3β4α5 nAChRs
15 | CN1CCCC1c1cccnc1 (racemic) [Synthetic RS racemic nicotine, RS-Nicotine] | −2.13 | 1.52 |  | 
16 | CN1CCC[C@H]1c1cccnc1 [Alchem S nicotine, S nicotine] | −1.46 | 1.34 | 87% | 
17 | CN1CCCC1c1cccnc1 (stereo not drawn) [Ref. nicotine (Sigma-Aldrich), nicotine] | −1.48 | 1.59 |  | 
18 | CN1CCC[C@H]1c1cccnc1 [Sigma-Aldrich S nicotine, S nicotine] | −1.91 | 1.38 | 84% | 
19 | CN1CCC[C@@H]1c1cccnc1 [Synthetic R nicotine, R nicotine] | −2.37 | 0.95 |  | partial, weak agonist
20 | CN1CCC[C@H]1c1cccnc1 [Synthetic S nicotine, S nicotine] | −1.48 | 1.11 |  | 

biological target: T1, α6/3β2β3 nAChRs; experiment: not given; conditions: not given

Row | SMILES | Agonist Effect Hillslope | Antagonist Effect Hillslope | Agonist Effect Emax | agonist character at human α6/3β2β3 nAChRs
21 | CN1CCCC1c1cccnc1 (racemic) [Synthetic RS racemic nicotine, RS-Nicotine] | −0.67 | 1.36 |  | 
22 | CN1CCC[C@H]1c1cccnc1 [Alchem S nicotine, S nicotine] | −0.81 | 0.97 | 95% | 
23 | CN1CCCC1c1cccnc1 (stereo not drawn) [Ref. nicotine (Sigma-Aldrich), nicotine] | −0.74 | 0.72 |  | 
24 | CN1CCC[C@H]1c1cccnc1 [Sigma-Aldrich S nicotine, S nicotine] | −0.69 | 0.96 | 100% | 
25 | CN1CCC[C@@H]1c1cccnc1 [Synthetic R nicotine, R nicotine] | −0.92 | 1.07 |  | full, weak agonist
26 | CN1CCC[C@H]1c1cccnc1 [Synthetic S nicotine, S nicotine] | −0.70 | 1.10 |  | 

biological target: T2, α3β4α5 nAChRs; experiment: cell-based; conditions: read-out: Agonist Effect Emax

Row | SMILES | Emax
27 | CN1CCCC1c1cccnc1 (racemic) [Synthetic RS racemic nicotine, RS-Nicotine] | 65%
28 | CN1CCCC1c1cccnc1 (stereo not drawn) [Ref. nicotine (Sigma-Aldrich), nicotine] | 100%
29 | CN1CCC[C@@H]1c1cccnc1 [Synthetic R nicotine, R nicotine] | 21%
30 | CN1CCC[C@H]1c1cccnc1 [Synthetic S nicotine, S nicotine] | 96%
